Experimental data published in publication PMC6950057, “Toxicity, Pharmacokinetics, and Gut Microbiome of Oral Administration of Sesterterpene MHO7 Derived from a Marine Fungus” (Marine Drugs, 2019).
Read-outs that look alike come from different tables or passages of the source.

Columns and labels:
[1] = Log D by shaking flask method (n-octanol/phosphate buffer); assay type: physicochemical; conditions: 37 °C
Description: An HPLC system (Shimadzu, Japan) was equipped with a LC-20AD binary pump system, a SIL-20AD auto sampler, a CBM-20A system controller, and a CTO-20A oven. Separation of MHO7 and IS from endogenous substances was carried out on an Agilent Zorbax XDB C18 column (5 μm, 250 × 4.6 mm, Agilent, Pal Alto, CA, USA), which was kept at 30 °C. The mobile phase was composed of 30% phase A (water) and 70% phase B (acetonitrile) with a flow rate of 1 mL·min^−1. The inject volume of the sample solution was 10 μL.
The phases of distilled water and n-octanol were saturated with each other by shaking for 48 h with 250 rpm in a shaking water bath prior to use. Solutions of MHO7 was prepared in concentration of 10 mM·L^−1 in n-octanol. Accurately measured amounts of the two solvents with necessary quantity of MHO7 were placed in a 5.0 mL centrifuge tube; then, the mixture was carried out at 250 rpm and designated temperature in the shaking water bath for 48 h to afford complete phase separation. The samples of both phases were collected at 0, 4, 8, 12, 24, 30, 36 and 48 h, diluted with methanol (1:1, V) and determined by HPLC with the detection wavelength of 234 nm. Each set of solvent systems for experimental logP/D value was the mean of the three determinations.

[2] = tested on: breast cancer cells (MCF-7); parameters: method as in PMID 31175940; conditions: mechanism of down regulating estrogen receptor alpha (ERα); cited from earlier work
[3] = Tissue distribution after single oral dose; assay type: in vivo, mice; conditions: oral 500 mg·kg^−1, female mice; for concentration at 1 h / concentration at 4 h / concentration at 8 h / concentration at 12 h / concentration at 20 h / concentration at 30 h: KM, mouse
Description: The animals and treatment methods were the same as in the pharmacokinetic studies. Afterwards, the biological samples (n = 6 per group) were collected at 1, 4, 8, 12, 20, and 30 h, and the tissues including heart, liver, spleen, lung, kidney, stomach, intestine, brain, muscle (hind limb), fat (white adipose tissue ), reproductive organs (uterus, fallopian tube and ovary) stomach and its contents, and intestine and its contents, and the blood samples were simultaneously collected. All the tissues were washed with cold physiological saline (4 °C), excess fluid blotted, accurately weighed, and subjected to the processing as described in the sample preparation. QC samples and standard curve series solutions were prepared in the same way of blank gastrointestinal contents and livers, respectively. The concentrations of HQC, MQC, and LQC in mice tissues were 10, 1, and 0.1 μM·L^−1, respectively, and the concentrations of standard curve series solutions were 50, 25, 10, 5, 2.5, 1, 0.5, 0.25, 0.1, and 0.005 μM·L^−1 for high and low concentrations of standard curves.

**Q.** With CC(C)=C/C=C/[C@H](C)[C@H]1CC[C@]2(C)C[C@@H]3C(C)=CC(=O)[C@H]3/C(C=O)=C\C[C@@H]12 [MHO7, 6-epi-ophiobolin G] as the molecule, how does the logD at 4 h ([1]; octanol/PBS pH 1.5, 4 h, read-out: Log P/D Value O/P (pH 1.5)) read?
**A.** The logD at 4 h was 1.29 ± 0.02.

**Q.** And the logD at 8 h ([1]; octanol/PBS pH 1.5, 8 h, read-out: Log P/D Value O/P (pH 1.5))?
**A.** Its logD at 8 h is 1.22 ± 0.04.

**Q.** And the logD at 12 h ([1]; octanol/PBS pH 1.5, 12 h, read-out: Log P/D Value O/P (pH 1.5))?
**A.** The logD at 12 h was 1.13 ± 0.03.

**Q.** What about the logD at 24 h ([1]; octanol/PBS pH 1.5, 24 h, read-out: Log P/D Value O/P (pH 1.5)) of the same molecule?
**A.** The logD at 24 h was 1.13 ± 0.02.

**Q.** And the logD at 30 h ([1]; octanol/PBS pH 1.5, 30 h, read-out: Log P/D Value O/P (pH 1.5))?
**A.** The logD at 30 h was 1.12 ± 0.15.

**Q.** What about the logD at 36 h ([1]; octanol/PBS pH 1.5, 36 h, read-out: Log P/D Value O/P (pH 1.5)) of the same molecule?
**A.** Its logD at 36 h is 1.12 ± 0.03.

**Q.** What about the logD at 48 h ([1]; octanol/PBS pH 1.5, 48 h, read-out: Log P/D Value O/P (pH 1.5)) of the same molecule?
**A.** Its logD at 48 h is 1.12 ± 0.03.

**Q.** And the logD at 4 h ([1]; octanol/PBS pH 5.0, 4 h, read-out: Log P/D Value O/P (pH 5.0))?
**A.** Its logD at 4 h is 1.15 ± 0.02.

**Q.** What about the logD at 8 h ([1]; octanol/PBS pH 5.0, 8 h, read-out: Log P/D Value O/P (pH 5.0)) of the same molecule?
**A.** The logD at 8 h was 1.03 ± 0.05.

**Q.** What about the logD at 12 h ([1]; octanol/PBS pH 5.0, 12 h, read-out: Log P/D Value O/P (pH 5.0)) of the same molecule?
**A.** Its logD at 12 h is 0.95 ± 0.03.

**Q.** What about the logD at 24 h ([1]; octanol/PBS pH 5.0, 24 h, read-out: Log P/D Value O/P (pH 5.0)) of the same molecule?
**A.** Its logD at 24 h is 0.95 ± 0.04.

**Q.** What about the logD at 30 h ([1]; octanol/PBS pH 5.0, 30 h, read-out: Log P/D Value O/P (pH 5.0)) of the same molecule?
**A.** The logD at 30 h was 0.95 ± 0.03.

**Q.** And the logD at 36 h ([1]; octanol/PBS pH 5.0, 36 h, read-out: Log P/D Value O/P (pH 5.0))?
**A.** The logD at 36 h was 0.93 ± 0.03.

**Q.** And the logD at 48 h ([1]; octanol/PBS pH 5.0, 48 h, read-out: Log P/D Value O/P (pH 5.0))?
**A.** Its logD at 48 h is 0.93 ± 0.02.

**Q.** What about the logD at 4 h ([1]; octanol/PBS pH 7.4, 4 h, read-out: Log P/D Value O/P (pH 7.4)) of the same molecule?
**A.** The logD at 4 h was 1.39 ± 0.03.

**Q.** And the logD at 8 h ([1]; octanol/PBS pH 7.4, 8 h, read-out: Log P/D Value O/P (pH 7.4))?
**A.** Its logD at 8 h is 1.37 ± 0.05.

**Q.** And the logD at 12 h ([1]; octanol/PBS pH 7.4, 12 h, read-out: Log P/D Value O/P (pH 7.4))?
**A.** The logD at 12 h was 1.31 ± 0.03.

**Q.** And the logD at 24 h ([1]; octanol/PBS pH 7.4, 24 h, read-out: Log P/D Value O/P (pH 7.4))?
**A.** Its logD at 24 h is 1.29 ± 0.02.

**Q.** And the logD at 30 h ([1]; octanol/PBS pH 7.4, 30 h, read-out: Log P/D Value O/P (pH 7.4))?
**A.** The logD at 30 h was 1.27 ± 0.04.

**Q.** And the logD at 36 h ([1]; octanol/PBS pH 7.4, 36 h, read-out: Log P/D Value O/P (pH 7.4))?
**A.** Its logD at 36 h is 1.26 ± 0.05.

**Q.** What about the logD at 48 h ([1]; octanol/PBS pH 7.4, 48 h, read-out: Log P/D Value O/P (pH 7.4)) of the same molecule?
**A.** Its logD at 48 h is 1.26 ± 0.01.

**Q.** And the antitumor activity [2]?
**A.** The antitumor activity was “potent antitumor activity”.

**Q.** What about the “Concentration in Brain” value ([3]; 1 h) of the same molecule?
**A.** The value was 0.95 ± 0.80 µg/g.

**Q.** And the “Concentration in Liver” value ([3]; 1 h)?
**A.** The value was 3.01 ± 1.53 µg/g.

**Q.** What about the “Concentration in Reproductive organs” value ([3]; 1 h) of the same molecule?
**A.** Its value is 0.88 ± 0.68 µg/g.

**Q.** What about the “Concentration in Fat” value ([3]; 4 h) of the same molecule?
**A.** The value was 5.20 ± 3.47 µg/g.

**Q.** And the “Concentration in Liver” value ([3]; 4 h)?
**A.** Its value is 1.64 ± 1.09 µg/g.

**Q.** What about the “Concentration in Reproductive organs” value ([3]; 4 h) of the same molecule?
**A.** Its value is 2.29 ± 1.80 µg/g.

**Q.** And the “Concentration in Fat” value ([3]; 8 h)?
**A.** Its value is 11.15 ± 8.87 µg/g.

**Q.** What about the “Concentration in Kidney” value ([3]; 8 h) of the same molecule?
**A.** The value was 1.66 ± 0.74 µg/g.

**Q.** What about the “Concentration in Reproductive organs” value ([3]; 8 h) of the same molecule?
**A.** Its value is 23.90 ± 11.33 µg/g.

**Q.** What about the “Concentration in Kidney” value ([3]; 12 h) of the same molecule?
**A.** Its value is 8.16 ± 6.23 µg/g.

**Q.** What about the “Concentration in Lung” value ([3]; 12 h) of the same molecule?
**A.** The value was 2.34 ± 1.91 µg/g.

**Q.** What about the “Concentration in Reproductive organs” value ([3]; 12 h) of the same molecule?
**A.** The value was 13.69 ± 10.29 µg/g.

**Q.** And the “Concentration in Reproductive organs” value ([3]; 20 h)?
**A.** The value was 1.46 ± 1.23 µg/g.

**Q.** What about the “Concentration in Reproductive organs” value ([3]; 30 h) of the same molecule?
**A.** Its value is 0.36 ± 0.46 µg/g.

**Q.** What about the concentration at 1 h ([3]; brain, 1 h, read-out: Concentration in Brain) of the same molecule?
**A.** The concentration at 1 h was 950 ± 800 ng/g.

**Q.** What about the concentration at 4 h ([3]; brain, 4 h, read-out: Concentration in Brain) of the same molecule?
**A.** Its concentration at 4 h is 480 ± 330 ng/g.

**Q.** What about the concentration at 8 h ([3]; brain, 8 h, read-out: Concentration in Brain) of the same molecule?
**A.** The concentration at 8 h was 500 ± 150 ng/g.

**Q.** And the concentration at 12 h ([3]; brain, 12 h, read-out: Concentration in Brain)?
**A.** The concentration at 12 h was 180 ± 110 ng/g.

**Q.** And the concentration at 20 h ([3]; brain, 20 h, read-out: Concentration in Brain)?
**A.** The concentration at 20 h was 100 ± 50 ng/g.

**Q.** What about the concentration at 30 h ([3]; brain, 30 h, read-out: Concentration in Brain) of the same molecule?
**A.** The concentration at 30 h was 10 ± 4 ng/g.

**Q.** And the concentration at 1 h ([3]; fat (white adipose tissue), 1 h, read-out: Concentration in Fat)?
**A.** Its concentration at 1 h is 740 ± 410 ng/g.

**Q.** And the concentration at 4 h ([3]; fat (white adipose tissue), 4 h, read-out: Concentration in Fat)?
**A.** The concentration at 4 h was 5200 ± 3470 ng/g.

**Q.** And the concentration at 8 h ([3]; fat (white adipose tissue), 8 h, read-out: Concentration in Fat)?
**A.** The concentration at 8 h was 11200 ± 8870 ng/g.

**Q.** And the concentration at 12 h ([3]; fat (white adipose tissue), 12 h, read-out: Concentration in Fat)?
**A.** Its concentration at 12 h is 740 ± 700 ng/g.

**Q.** What about the concentration at 20 h ([3]; fat (white adipose tissue), 20 h, read-out: Concentration in Fat) of the same molecule?
**A.** Its concentration at 20 h is 340 ± 250 ng/g.

**Q.** And the concentration at 30 h ([3]; fat (white adipose tissue), 30 h, read-out: Concentration in Fat)?
**A.** The concentration at 30 h was 180 ± 160 ng/g.

**Q.** What about the concentration at 1 h ([3]; heart, 1 h, read-out: Concentration in Heart) of the same molecule?
**A.** Its concentration at 1 h is 60 ± 37 ng/g.

**Q.** What about the concentration at 4 h ([3]; heart, 4 h, read-out: Concentration in Heart) of the same molecule?
**A.** The concentration at 4 h was 850 ± 510 ng/g.

**Q.** What about the concentration at 8 h ([3]; heart, 8 h, read-out: Concentration in Heart) of the same molecule?
**A.** The concentration at 8 h was 670 ± 480 ng/g.

**Q.** What about the concentration at 12 h ([3]; heart, 12 h, read-out: Concentration in Heart) of the same molecule?
**A.** Its concentration at 12 h is 640 ± 300 ng/g.

**Q.** And the concentration at 20 h ([3]; heart, 20 h, read-out: Concentration in Heart)?
**A.** The concentration at 20 h was 40 ± 20 ng/g.

**Q.** What about the concentration at 30 h ([3]; heart, 30 h, read-out: Concentration in Heart) of the same molecule?
**A.** Its concentration at 30 h is 80 ± 10 ng/g.

**Q.** What about the concentration at 1 h ([3]; kidney, 1 h, read-out: Concentration in Kidney) of the same molecule?
**A.** Its concentration at 1 h is 110 ± 60 ng/g.

**Q.** What about the concentration at 4 h ([3]; kidney, 4 h, read-out: Concentration in Kidney) of the same molecule?
**A.** The concentration at 4 h was 1630 ± 920 ng/g.
